US12577206B2 (BRISTOL-MYERS SQUIBB COMPANY, priority 2020, dated 2026)

Legend:
[1] = biological target: T1, human FPR1 (Homo sapiens, UniProt P21462); experiment: FPR1 cyclic adenosine monophosphate (cAMP) assay; assay type: cell-based; details: CHO cells overexpressing human FPR1; forskolin 10 μM; inhibition of cAMP production; HTRF; read-out: hFPR1 cAMP2 EC50
T1 sequence (P21462 1-350): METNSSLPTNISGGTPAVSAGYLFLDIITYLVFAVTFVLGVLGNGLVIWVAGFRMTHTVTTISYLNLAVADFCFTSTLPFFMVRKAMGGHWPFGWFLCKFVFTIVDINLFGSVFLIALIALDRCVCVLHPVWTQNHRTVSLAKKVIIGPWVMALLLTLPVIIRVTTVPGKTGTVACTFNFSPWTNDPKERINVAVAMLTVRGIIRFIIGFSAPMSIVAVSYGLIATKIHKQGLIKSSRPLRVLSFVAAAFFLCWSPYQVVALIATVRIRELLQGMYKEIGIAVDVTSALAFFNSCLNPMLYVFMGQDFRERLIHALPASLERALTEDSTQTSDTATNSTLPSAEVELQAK
Method in brief: (§1)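 CHO/hFPR1 4,000 cells/well, forskolin 10 μM final; CHO/hFPR2 2,000 cells/well, forskolin 5 μM final. IBMX 200 μM, DMSO 1%, DPBS + Ca/Mg + 0.1% BSA, 30 min rt. HTRF cAMP; 4-PL fit.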

[2] = biological target: T2, human FPR2 (Homo sapiens, UniProt P25090); experiment: FPR2 cyclic adenosine monophosphate (cAMP) assay; assay type: cell-based; details: CHO cells overexpressing human FPR2; forskolin 5 μM; inhibition of cAMP production; HTRF; read-out: hFPR2 cAMP2 EC50
T2 sequence (P25090 1-351): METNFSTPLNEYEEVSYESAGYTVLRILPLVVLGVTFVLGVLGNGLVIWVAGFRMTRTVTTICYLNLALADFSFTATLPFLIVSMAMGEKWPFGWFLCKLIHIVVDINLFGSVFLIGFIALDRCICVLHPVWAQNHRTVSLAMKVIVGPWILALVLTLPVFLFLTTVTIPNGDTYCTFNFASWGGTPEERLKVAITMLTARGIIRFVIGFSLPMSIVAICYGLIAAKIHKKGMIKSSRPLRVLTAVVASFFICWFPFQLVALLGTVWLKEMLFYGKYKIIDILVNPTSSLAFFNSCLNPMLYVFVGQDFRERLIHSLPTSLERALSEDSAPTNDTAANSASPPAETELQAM
Method in brief: as §1

Row | EC50 [1] | EC50 [2] | Compound
1 | > 10000 nM | 7 nM | COc1cc(F)c(-c2c(NC(=O)c3ccc(OC(F)(F)F)cc3)c(=O)n(-c3ncccc3C#N)n2C)c(F)c1 [Example 56, N-[2-(3-cyanopyridin-2-yl)-5-(2,6-difluoro-4-methoxyphenyl)-1-methyl-3-oxo-2,3-dihydro-1H-pyrazol-4-yl]-4-(trifluoromethoxy)benzamide]
2 | 380 nM | 150 nM | COc1cc(F)c(-c2c(NC(=O)c3ccc(OC(F)F)cc3)c(=O)n(Cc3nnc(C(C)C)o3)n2C)c(F)c1 [Example 57, N-[5-(2,6-difluoro-4-methoxyphenyl)-1-methyl-3-oxo-2-{[5-(propan-2-yl)-1,3,4-oxadiazol-2-yl]methyl}-2,3-dihydro-1H-pyrazol-4-yl]-4-(difluoromethoxy)benzamide]
3 | > 10000 nM | 230 nM | COc1cc(F)c(-c2c(NC(=O)c3ccc(OC(F)F)cc3)c(=O)n(CCO)n2C)c(F)c1 [Example 58, N-[5-(2,6-difluoro-4-methoxyphenyl)-2-(2-hydroxyethyl)-1-methyl-3-oxo-2,3-dihydro-1H-pyrazol-4-yl]-4-(difluoromethoxy)benzamide]
4 | > 10000 nM | 8 nM | COc1ccnc(-n2c(=O)c(NC(=O)c3ccc(OC(F)F)cc3)c(-c3c(F)cc(OC)cc3F)n2C)c1 [Example 59, N-[5-(2,6-difluoro-4-methoxyphenyl)-2-(4-methoxypyridin-2-yl)-1-methyl-3-oxo-2,3-dihydro-1H-pyrazol-4-yl]-4-(difluoromethoxy)benzamide]
5 | 210 nM | 3 nM | COc1cc(F)c(-c2c(NC(=O)c3ccc(OC(F)F)cc3)c(=O)n(-c3ccc4ccccc4n3)n2C)c(F)c1 [Example 60, N-[5-(2,6-difluoro-4-methoxyphenyl)-1-methyl-3-oxo-2-(quinolin-2-yl)-2,3-dihydro-1H-pyrazol-4-yl]-4-(difluoromethoxy)benzamide]
6 | 1600 nM | 11 nM | COc1cc(F)c(-c2c(NC(=O)c3ccc(OC(F)F)cc3)c(=O)n(-c3cncc(C)n3)n2C)c(F)c1 [Example 61, N-[5-(2,6-difluoro-4-methoxyphenyl)-1-methyl-2-(6-methylpyrazin-2-yl)-3-oxo-2,3-dihydro-1H-pyrazol-4-yl]-4-(difluoromethoxy)benzamide]
7 | > 10000 nM | 6 nM | COc1cc(F)c(-c2c(NC(=O)c3ccc(OC(F)F)cc3)c(=O)n(-c3cc(C(F)(F)F)ccn3)n2C)c(F)c1 [Example 62, N-[5-(2,6-difluoro-4-methoxyphenyl)-1-methyl-3-oxo-2-[4-(trifluoromethyl)pyridin-2-yl]-2,3-dihydro-1H-pyrazol-4-yl]-4-(difluoromethoxy)benzamide]
8 | > 10000 nM | 7 nM | COc1cc(F)c(-c2c(NC(=O)c3ccc(OC(F)(F)F)cc3)c(=O)n(-c3cc(C(F)(F)F)ccn3)n2C)c(F)c1 [Example 63, N-[5-(2,6-difluoro-4-methoxyphenyl)-1-methyl-3-oxo-2-[4-(trifluoromethyl)pyridin-2-yl]-2,3-dihydro-1H-pyrazol-4-yl]-4-(trifluoromethoxy)benzamide]
9 | 800 nM | 11 nM | COc1cc(F)c(-c2c(NC(=O)c3ccc(OC(F)F)cc3)c(=O)n(-c3cnc4ccccc4n3)n2C)c(F)c1 [Example 64, N-[5-(2,6-difluoro-4-methoxyphenyl)-1-methyl-3-oxo-2-(quinoxalin-2-yl)-2,3-dihydro-1H-pyrazol-4-yl]-4-(difluoromethoxy)benzamide]
10 | > 10000 nM | 8 nM | COc1cc(F)c(-c2c(NC(=O)c3ccc(OC(F)F)cc3)c(=O)n(-c3cc(C)cc(C)n3)n2C)c(F)c1 [Example 65, N-[5-(2,6-difluoro-4-methoxyphenyl)-2-(4,6-dimethylpyridin-2-yl)-1-methyl-3-oxo-2,3-dihydro-1H-pyrazol-4-yl]-4-(difluoromethoxy)benzamide]
11 | 2500 nM | 8 nM | COc1cc(F)c(-c2c(NC(=O)c3ccc(OC(F)(F)F)cc3)c(=O)n(-c3cc(C)cc(C)n3)n2C)c(F)c1 [Example 66, N-[5-(2,6-difluoro-4-methoxyphenyl)-2-(4,6-dimethylpyridin-2-yl)-1-methyl-3-oxo-2,3-dihydro-1H-pyrazol-4-yl]-4-(trifluoromethoxy)benzamide]
12 | 3400 nM | 9 nM | COc1cc(F)c(-c2c(NC(=O)c3ccc(OC(F)F)cc3)c(=O)n(-c3cccc(C(F)F)n3)n2C)c(F)c1 [Example 67, N-[5-(2,6-difluoro-4-methoxyphenyl)-2-[6-(difluoromethyl)pyridin-2-yl]-1-methyl-3-oxo-2,3-dihydro-1H-pyrazol-4-yl]-4-(difluoromethoxy)benzamide]
13 | 1000 nM | 8 nM | COc1cc(F)c(-c2c(NC(=O)c3ccc(OC(F)(F)F)cc3)c(=O)n(-c3cccc(C(F)F)n3)n2C)c(F)c1 [Example 68, N-[5-(2,6-difluoro-4-methoxyphenyl)-2-[6-(difluoromethyl)pyridin-2-yl]-1-methyl-3-oxo-2,3-dihydro-1H-pyrazol-4-yl]-4-(trifluoromethoxy)benzamide]
14 | 5 nM | 5 nM | COc1cc(F)c(-c2c(NC(=O)c3ccc(OC(F)F)cc3)c(=O)n(-c3cccc(-n4ccc(C)n4)n3)n2C)c(F)c1 [Example 69, N-[5-(2,6-difluoro-4-methoxyphenyl)-1-methyl-2-[6-(3-methyl-1H-pyrazol-1-yl)pyridin-2-yl]-3-oxo-2,3-dihydro-1H-pyrazol-4-yl]-4-(difluoromethoxy)benzamide]
15 | 5 nM | 3 nM | COc1cc(F)c(-c2c(NC(=O)c3ccc(OC(F)(F)F)cc3)c(=O)n(-c3cccc(-n4ccc(C)n4)n3)n2C)c(F)c1 [Example 70, N-[5-(2,6-difluoro-4-methoxyphenyl)-1-methyl-2-[6-(3-methyl-1H-pyrazol-1-yl)pyridin-2-yl]-3-oxo-2,3-dihydro-1H-pyrazol-4-yl]-4-(trifluoromethoxy)benzamide]
16 | 2600 nM | 20 nM | COc1cc(F)c(-c2c(NC(=O)c3ccc(OC(F)F)cc3)c(=O)n(-c3cncc(OC)n3)n2C)c(F)c1 [Example 71, N-[5-(2,6-difluoro-4-methoxyphenyl)-2-(6-methoxypyrazin-2-yl)-1-methyl-3-oxo-2,3-dihydro-1H-pyrazol-4-yl]-4-(difluoromethoxy)benzamide]
17 | 180 nM | 2.7 nM | COc1cc(F)c(-c2c(NC(=O)c3ccc(OC(F)F)cc3)c(=O)n(-c3cccc(-c4ccccc4)n3)n2C)c(F)c1 [Example 72, N-[5-(2,6-difluoro-4-methoxyphenyl)-1-methyl-3-oxo-2-(6-phenylpyridin-2-yl)-2,3-dihydro-1H-pyrazol-4-yl]-4-(difluoromethoxy)benzamide]
18 | 950 nM | 13 nM | COc1cc(F)c(-c2c(NC(=O)c3ccc(OC(F)(F)F)cc3)c(=O)n(-c3cccc(-c4ccccc4)n3)n2C)c(F)c1 [Example 73, N-[5-(2,6-difluoro-4-methoxyphenyl)-1-methyl-3-oxo-2-(6-phenylpyridin-2-yl)-2,3-dihydro-1H-pyrazol-4-yl]-4-(trifluoromethoxy)benzamide]
19 | 820 nM | 6 nM | COc1cc(F)c(-c2c(NC(=O)c3ccc(OC(F)(F)F)cc3)c(=O)n(-c3cccc(OC)n3)n2C)c(F)c1 [Example 74, N-[5-(2,6-difluoro-4-methoxyphenyl)-2-(6-methoxypyridin-2-yl)-1-methyl-3-oxo-2,3-dihydro-1H-pyrazol-4-yl]-4-(trifluoromethoxy)benzamide]
20 | 2300 nM | 7 nM | COc1cc(F)c(-c2c(NC(=O)c3ccc(OC(F)F)cc3)c(=O)n(-c3cccc(OC)n3)n2C)c(F)c1 [Example 75, N-[5-(2,6-difluoro-4-methoxyphenyl)-2-(6-methoxypyridin-2-yl)-1-methyl-3-oxo-2,3-dihydro-1H-pyrazol-4-yl]-4-(difluoromethoxy)benzamide]
21 | 620 nM | 17 nM | COc1cc(F)c(-c2c(NC(=O)c3ccc(OC(F)F)cc3)c(=O)n(-c3cc(OC)c(C)cn3)n2C)c(F)c1 [Example 77, N-[5-(2,6-difluoro-4-methoxyphenyl)-2-(4-methoxy-5-methylpyridin-2-yl)-1-methyl-3-oxo-2,3-dihydro-1H-pyrazol-4-yl]-4-(difluoromethoxy)benzamide]
22 | 9500 nM | 10 nM | CCOc1ccnc(-n2c(=O)c(NC(=O)c3ccc(OC(F)F)cc3)c(-c3c(F)cc(OC)cc3F)n2C)c1 [Example 78, N-[5-(2,6-difluoro-4-methoxyphenyl)-2-(4-ethoxypyridin-2-yl)-1-methyl-3-oxo-2,3-dihydro-1H-pyrazol-4-yl]-4-(difluoromethoxy)benzamide]
